Data taken from ChEMBL document CHEMBL3627604, “Design of novel 3,6-diazabicyclo[3.1.1]heptane derivatives with potent and selective affinities for α4β2 neuronal nicotinic acetylcholine receptors” (Eur J Med Chem, 2015).
Calls of active or inactive are those of the source. The calls are words filed in the database; no cut-off is given here.

What was measured:
[1] = target: Neuronal acetylcholine receptor subunit alpha-7 (Rattus norvegicus, UniProt Q05941); experiment: Displacement of [125I]alpha-Bungarotoxin from alpha7 nAChR in Sprague-Dawley rat hippocampal membranes pre-incubated for 5 mins followed by overnight incubation by radioligand liquid scintillation counter analysis
Sequence of Neuronal acetylcholine receptor subunit alpha-7 (Q05941 whole entry): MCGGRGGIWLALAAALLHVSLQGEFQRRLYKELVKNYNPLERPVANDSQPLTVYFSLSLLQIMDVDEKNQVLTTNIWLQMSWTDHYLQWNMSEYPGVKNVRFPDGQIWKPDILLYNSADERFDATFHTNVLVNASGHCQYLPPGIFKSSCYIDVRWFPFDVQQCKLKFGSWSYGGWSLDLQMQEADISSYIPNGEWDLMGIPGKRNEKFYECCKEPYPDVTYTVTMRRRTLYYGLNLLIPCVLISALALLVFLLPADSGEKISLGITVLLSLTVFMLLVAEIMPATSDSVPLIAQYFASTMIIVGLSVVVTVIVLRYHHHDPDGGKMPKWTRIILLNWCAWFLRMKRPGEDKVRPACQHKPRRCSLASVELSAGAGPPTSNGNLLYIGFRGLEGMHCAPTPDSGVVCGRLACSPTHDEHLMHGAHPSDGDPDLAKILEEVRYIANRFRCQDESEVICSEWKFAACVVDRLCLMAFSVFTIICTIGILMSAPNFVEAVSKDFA

[2] = Displacement of [3H]-Epibatidine from alpha4beta2* nAChR in Sprague-Dawley rat cortical membranes pre-incubated for 5 mins followed by overnight incubation by radioligand liquid scintillation counter analysis
[3] = species on record: Rattus norvegicus; experiment: Selectivity ratio of Ki for alpha7 nAChR in Sprague-Dawley rat hippocampal membranes to Ki for alpha4beta2 nAChR in Sprague-Dawley rat cortical membranes
[4] = Binding affinity to alpha4beta2* nAChR in Sprague-Dawley rat cortical membranes after overnight incubation by radioligand liquid scintillation counter analysis
[5] = tested on: HEK293; experiment: Selectivity ratio of Ki for aplha6beta2* nAChR in Sprague-Dawley rat cortical membranes to Ki for human aplha3beta4 nAChR expressed in HEK293 cells; format: cell-based
[6] = target: Neuronal acetylcholine receptor; alpha4/beta2 (Rattus norvegicus, UniProt P09483+P12390); experiment: Agonist activity at alpha4beta2 nAChR in Sprague-Dawley rat striatal slices assessed as increase in [3H]-Dopamine release after 5 mins by microbeta counting; format: protein-complex assay
Sequence of Neuronal acetylcholine receptor; alpha4/beta2 (P09483 whole entry): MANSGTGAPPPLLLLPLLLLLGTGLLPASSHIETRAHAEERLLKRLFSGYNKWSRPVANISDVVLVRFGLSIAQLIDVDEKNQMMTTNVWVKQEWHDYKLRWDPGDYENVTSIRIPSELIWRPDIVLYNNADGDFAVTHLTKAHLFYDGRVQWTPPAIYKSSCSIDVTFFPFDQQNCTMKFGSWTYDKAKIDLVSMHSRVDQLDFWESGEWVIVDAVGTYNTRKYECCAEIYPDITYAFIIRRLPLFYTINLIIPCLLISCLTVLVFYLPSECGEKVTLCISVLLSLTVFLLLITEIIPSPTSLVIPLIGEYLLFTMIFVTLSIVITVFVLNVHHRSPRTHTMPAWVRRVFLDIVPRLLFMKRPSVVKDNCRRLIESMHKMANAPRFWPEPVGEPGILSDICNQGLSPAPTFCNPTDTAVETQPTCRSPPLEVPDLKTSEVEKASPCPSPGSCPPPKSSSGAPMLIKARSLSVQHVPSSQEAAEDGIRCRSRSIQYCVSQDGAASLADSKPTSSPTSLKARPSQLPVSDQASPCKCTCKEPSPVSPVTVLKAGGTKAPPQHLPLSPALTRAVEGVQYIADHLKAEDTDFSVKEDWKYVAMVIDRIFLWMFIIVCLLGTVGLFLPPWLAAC
Sequence of Neuronal acetylcholine receptor; alpha4/beta2 (P12390 whole entry): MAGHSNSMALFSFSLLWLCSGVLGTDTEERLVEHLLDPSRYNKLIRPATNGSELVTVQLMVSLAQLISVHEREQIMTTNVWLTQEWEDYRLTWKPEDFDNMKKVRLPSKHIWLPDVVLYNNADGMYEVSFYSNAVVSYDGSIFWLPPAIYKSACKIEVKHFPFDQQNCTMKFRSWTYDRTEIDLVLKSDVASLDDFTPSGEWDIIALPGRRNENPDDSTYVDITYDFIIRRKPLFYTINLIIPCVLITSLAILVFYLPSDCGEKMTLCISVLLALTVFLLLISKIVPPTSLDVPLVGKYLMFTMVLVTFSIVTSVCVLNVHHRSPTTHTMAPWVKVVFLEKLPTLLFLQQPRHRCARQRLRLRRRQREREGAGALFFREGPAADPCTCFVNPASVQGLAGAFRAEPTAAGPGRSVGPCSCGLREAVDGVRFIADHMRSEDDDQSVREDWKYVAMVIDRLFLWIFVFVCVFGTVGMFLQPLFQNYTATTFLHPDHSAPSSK

[7] = Displacement of [3H]-Epibatidine from aplha6beta2* nAChR in Sprague-Dawley rat cortical membranes pre-incubated for 5 mins followed by overnight incubation by radioligand liquid scintillation counter analysis
[8] = target: Neuronal acetylcholine receptor; alpha3/beta4 (Homo sapiens, UniProt P30926+P32297); experiment: Displacement of [3H]-Epibatidine from human aplha3beta4 nAChR expressed in HEK293 cells pre-incubated for 5 mins followed by overnight incubation by radioligand liquid scintillation counter analysis; format: cell-based
Sequence of Neuronal acetylcholine receptor; alpha3/beta4 (P30926 whole entry): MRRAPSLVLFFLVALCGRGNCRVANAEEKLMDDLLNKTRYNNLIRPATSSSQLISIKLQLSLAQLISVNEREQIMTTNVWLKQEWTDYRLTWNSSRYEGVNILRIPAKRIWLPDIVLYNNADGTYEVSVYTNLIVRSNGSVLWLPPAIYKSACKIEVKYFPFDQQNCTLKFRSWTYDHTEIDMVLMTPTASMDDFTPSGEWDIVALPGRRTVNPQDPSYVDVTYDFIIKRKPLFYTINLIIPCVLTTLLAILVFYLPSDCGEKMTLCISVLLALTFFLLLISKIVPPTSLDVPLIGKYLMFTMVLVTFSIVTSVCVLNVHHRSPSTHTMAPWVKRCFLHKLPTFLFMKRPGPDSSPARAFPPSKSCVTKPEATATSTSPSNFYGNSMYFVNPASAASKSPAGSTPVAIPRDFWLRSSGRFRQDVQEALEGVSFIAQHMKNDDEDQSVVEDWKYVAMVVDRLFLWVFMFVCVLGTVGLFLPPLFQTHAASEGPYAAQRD
Sequence of Neuronal acetylcholine receptor; alpha3/beta4 (P32297 whole entry): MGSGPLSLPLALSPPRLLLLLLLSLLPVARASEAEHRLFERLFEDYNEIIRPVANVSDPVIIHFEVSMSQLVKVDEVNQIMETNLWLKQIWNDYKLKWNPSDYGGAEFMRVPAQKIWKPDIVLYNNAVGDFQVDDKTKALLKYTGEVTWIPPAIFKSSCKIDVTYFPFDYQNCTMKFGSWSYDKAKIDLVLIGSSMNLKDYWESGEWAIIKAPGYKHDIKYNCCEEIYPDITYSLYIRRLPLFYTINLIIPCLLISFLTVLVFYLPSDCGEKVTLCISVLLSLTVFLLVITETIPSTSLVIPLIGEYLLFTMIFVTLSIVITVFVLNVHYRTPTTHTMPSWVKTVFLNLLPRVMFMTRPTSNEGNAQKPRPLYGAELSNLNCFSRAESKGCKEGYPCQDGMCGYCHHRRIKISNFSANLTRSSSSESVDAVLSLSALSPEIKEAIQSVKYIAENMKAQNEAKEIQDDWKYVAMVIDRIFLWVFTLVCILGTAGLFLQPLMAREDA

[9] = Antagonist activity against alpha6beta2* nAChR in Sprague-Dawley rat […] assessed as inhibition of nicotine-induced [3H]-dopamine release after 5 mins by microbeta counting
[10] = target: Neuronal acetylcholine receptor; alpha4/beta2 (Rattus norvegicus) (UniProt P09483+P12390); experiment: Agonist activity at alpha4beta2 nAChR in Sprague-Dawley rat striatal slices assessed as increase in [3H]-dopamine release after 5 mins by microbeta counting relative to nicotine; format: protein-complex assay
[11] = species on record: Rattus norvegicus; experiment: Agonist activity at aplha6beta2* nAChR in Sprague-Dawley rat striatal slices assessed as stinulation of [3H]-dopamine release in presence of 100 nM alpha-conotoxin MII after 5 mins by microbeta counting

SMILES | Ki [1] [nM] | Ki [2] [nM] | Ratio Ki [3] | also measured
Cc1ccc(-c2cncc(N3CC4CC(C3)N4)c2)cc1 | 96000 | 0.0143 | 6.69e+06 | –
Brc1cncc(N2CC3CC(C2)N3)c1 | 176 | 0.00572 | 30800 | –
Clc1ccc([C@@H]2C[C@H]3CC[C@@H]2N3)cn1 [(+)-EPIBATIDINE] | – | – | – | Ki [4]: 0.043 nM
Clc1ccc(-c2cncc(N3CC4CC(C3)N4)c2)cc1 | 48000 | 0.0328 | 1.46e+06 | –
c1ccc(-c2cncc(N3CC4CC(C3)N4)c2)cc1 | 17000 | 0.0112 | 1.52e+06 | Ratio Ki [5]: 521; EC50 [6]: Not Active; Ki [7]: 0.0112 nM; Ki [8]: 6.1 nM; IC50 [9]: 5.87 nM
COc1ccc(-c2cncc(N3CC4CC(C3)N4)c2)cc1 | 6500 | 0.0121 | 537000 | –
Clc1ccc(-c2cncc(N3CC4CC(C3)N4)c2)c(Cl)c1 | 13000 | 0.0821 | – | –
Clc1ccc(N2CC3CC(C2)N3)cn1 | – | – | – | Efficacy [10]: 120%; EC50 ([6]; read-out: EC50): 1.16 nM; Ki [7]: 0.0048 nM; Activity [11]: inactive; Ki [8]: 0.2 nM
Clc1ccc(-c2cncc(N3CC4CC(C3)N4)c2)cc1Cl | 36000 | 0.0908 | 397000 | –
Fc1ccc(-c2cncc(N3CC4CC(C3)N4)c2)cc1 | 110000 | 0.0248 | 4.44e+06 | EC50 [6]: Not Active; Ki [7]: 0.032 nM; Ki [8]: 1.6 nM; IC50 [9]: 0.7 nM
Clc1ccc(Cl)c(-c2cncc(N3CC4CC(C3)N4)c2)c1 | 6000 | 0.0667 | 90000 | –
O=[N+]([O-])c1ccc(-c2cncc(N3CC4CC(C3)N4)c2)cc1 | 5000 | 0.0105 | 478000 | –
Brc1ccc(-c2cncc(N3CC4CC(C3)N4)c2)cc1 | 34000 | 0.151 | 226000 | –
Clc1cncc(N2CC3CC(C2)N3)c1 | 73 | 0.00632 | 11600 | Efficacy [10]: 111%; Ratio Ki [5]: 411; EC50 ([6]; read-out: EC50): 1.4 nM; Ki [7]: 0.0112 nM; Activity [11]: inactive; Ki [8]: 2.6 nM
